Laboratory results reported in patent US20230002346A1, “NEW COMPOUNDS AND METHODS” (BenevolentAl Bio Limited, priority 2019, published 2023).
In brackets after ≈: the same amount, converted by molar mass.

Experiments:
hERG channel = target: T1, hERG channel (Homo sapiens, UniProt Q12809); test: hERG assay (QPatch automated patch clamp, CHO cells); assay type: cell-based; settings: CHO cells expressing hERG, whole-cell patch clamp, 0.003 μM to 10 μM
T1 construct: expressed in transfected cells
Description: The human ether-a-go-go related gene (hERG) potassium channel (Kv11.1) contributes to human cardiac action potential repolarisation. Inhibition of hERG channels can prolong the human cardiac action potential, resulting in QTc prolongation and potentially lethal arrhythmias (e.g. Torsade de Pointes).
Test samples were screened against the hERG channel on a QPatch 48 gigaseal automated patch clamp platform, using a Chinese Hamster Ovary (CHO) cell line stably expressing the human ether-á-go-go related gene, which encodes the hERG channel. All recordings were made in the conventional whole-cell configuration and performed at RT ([…]) using standard single hole chips (Rchip 1.5-4M0). Series resistance (4-15Mc) was compensated by >80%. Currents were elicited from a holding potential of −90 mV using the industry standard “^+40/−40” voltage protocol, which was applied at a stimulus frequency of 0.1 Hz. On achieving the whole-cell configuration, vehicle (0.1% DMSO v/v in external recording solution) was applied to each cell in two bolus additions with a 2 min recording period between each addition. Following the vehicle period, eight increasing concentrations of test sample were applied from 0.003 μM to 10 μM as a single bolus addition per test concentration, and the effects on hERG tail current amplitude measured during the 2 min recording period. Each eight-point concentration-response curve was constructed using cumulative single sample additions of each concentration to the same cell. The positive control used in this study was verapamil hydrochloride (Tocris, Cat #0654, Batch #5A/61673) and prepared to a stock concentration of 10 mM in 100% DMSO and kept as frozen aliquots.
Data analysis: All cells passing the QC parameters (i.e. >200 pA outward current, membrane resistance and rundown) are selected as ‘passed QC’ using the QPatch software, which then calculates the mean peak current for the last three sweeps at the end of each concentration application period from the cursor positions defined. Percent inhibition is calculated for each test concentration application period as the reduction in mean cursor value (peak current or charge) relative to the cursor value measured at the end of the control (i.e. vehicle) period. The percent inhibition values from each cell are used to construct concentration-response curves employing a four parametric logistic fit with 0 and 100% inhibition levels fixed at very low and very high concentrations, respectively, and a free Hill slope factor. The IC50 (50% inhibitory concentration) and Hill coefficient are then determined, but only data from cells with Hill slopes within 0.5>nH<2.0 are included. The IC50 data reported below represents the mean (and S.D.) of at least three separate cells (N≥3). […] Compounds of the invention show reduced hERG inhibitory activity compared to the reference examples.

[1] = test system: 87 targets across GPCRs, ion channels, and enzymes; test: Eurofins SafetyScreen panel; settings: top concentration of 10 μM
Description: Example 50 was screened against the Eurofins SafetyScreen™ panel of 87 targets across GPCRs, ion channels, and enzymes.

[2] = test system: Salmonella typhimurium, strains TA98 and TA100; test: Ames assay (Bacterial Reverse Mutation Test); assay type: cell-based; settings: TA98 and TA100, presence and absence of S-9 mix, up to 5000 μg/plate
Method: Examples 50, 52 and 54 were tested, in vitro, for their ability to induce mutations in 2 histidine dependent auxotrophic mutants of Salmonella typhimurium, strains TA98 and TA100. The mutation screen was conducted using the plate incorporation method and was performed in both the presence and absence of S-9 mix (a liver post-mitochondrial fraction derived from the livers of Aroclor 1254 treated rats). The bacteria were exposed to the test items dissolved in DMSO, which was also the negative Control. The test items were tested up to the regulatory maximum dose level. The dose levels used were 5, 15, 50, 150, 500, 1500 or 5000 μg/plate, unless the highest treatment level of the test items was limited by solubility, or toxicity against the background bacterial lawn. Dose levels were expressed in terms of the free base.
There were no increases of 2-fold or greater in revertant numbers compared with negative Control values in either strain at any dose level in the presence or absence of S-9 mix, so Examples 50, 52 and 54 were not mutagenic in the Bacterial Reverse Mutation (i.e. Ames) Test under the conditions of this screen.

[3] = Kinetic aqueous solubility assay; assay type: physicochemical; settings: aqueous buffer, kinetic from dmso stock, 0.05M potassium phosphate buffer pH 7.4, 250 μM spike, RT
Method: Using a 10 mM stock solution of test compound in 100% DMSO, test compounds were spiked into 0.05M potassium phosphate buffer (pH 7.4) at a final concentration of 250 μM. Samples in buffer (n=2 aqueous samples, in 96-well plates) were allowed to equilibrate at RT on an orbital shaker for 30 min (300 rpm) to induce precipitation of test compounds. The appearance of each sample was determined by visual examination and noted (clear, cloudy, precipitate observed etc.). […] The concentration of compound in phosphate buffer filtrate was determined by comparing the UV absorbance peak area of each replicate against that of the calibration standards. […] Compounds of the invention have much improved solubility compared to the reference examples.

[4] = Brain to plasma (B:P) ratio in rat; assay type: in vivo, Sprague Dawley Rats; settings: male, Sprague Dawley, iv, i.v. 1.5 mg/kg, 3.3% NMP in 30% HPBC in water, timepoints averaged 0.5-1 h
[5] = Brain to plasma (B:P) ratio in rat; assay type: in vivo, Sprague Dawley Rats; settings: male, Sprague Dawley, po, p.o. 3.0 mg/kg
Method: Male Sprague Dawley Rats 300-350 g (Charles River, UK) were group housed, n=3, under a 12 h light/dark cycle with food and water available ad libitum. At 17:00 on the day prior to dosing all food was removed. On the day of dosing animals were weighed, tail marked and dosed via oral gavage with compound at 3 mg/kg in a volume of 5 mL/kg. Animals were culled at 30 min, 1 h and 4 h post dose via intra-peritoneal administration of pentobarbital. Post mortem blood was withdrawn via cardiac puncture, and briefly stored in K2 EDTA blood tubes on ice before being spun at 14,000 g for 4 min at 4° C. Plasma was withdrawn into a 96 well plate, placed on dry ice and stored at −80° C. Brains were quickly dissected and placed on dry ice before storage at −80° C. Bioanalysis of plasma and brain samples is performed as detailed below. Methods were prepared with guidance from industry standard documents.^i,ii […] Calibration lines are prepared in control male Sprague-Dawley Rat plasma at known concentrations in the range of 1-10000 ng/mL by spiking 2.5 μL of calibration spiking solution into 25 μL control plasma. Experimental samples are thawed to RT and 25 μL aliquots are extracted alongside the calibration lines using protein precipitation (agitation for at least 5 min at RT with 400 μL of MeCN containing 25 ng/mL tolbutamide as an internal standard). Protein precipitates are separated from the extracted test compound by centrifugation at 4000 rpm for 5 min, 4° C. […] Samples are analysed by UPLC-MS/MS on either an API6500 QTrap or Waters 30 TQS mass spectrometer using previously optimised analytical MRM (multiple reaction monitoring) methods, specific to the test compound. The concentration of test compound in isolated samples is determined following analysis of the samples against the two replicates of the calibration line, injected before and after the sample set with an appropriate regression and weighting used. Only samples within 20% of the expected test concentration are included in the calibration line and any samples that fall outside of the limits of the calibration line will be deemed to be less than or above the limit of quantification (LLoQ/ALoQ). […] Calibration lines are prepared in control male Sprague-Dawley Rat brain homogenate at known concentrations in the range of 3-30000 ng/g by spiking 2.5 μL of calibration spiking solution into 25 μL control homogenate. To prepare control and experimental brain homogenates, brains are thawed, weighed and a volume of diluent added (water) in the ratio of 2 mL per gram of brain. Homogenisation of brains is performed by bead-beater homogenisation using Precellys Evolution and CK14 7 mL small ceramic bead homogenisation tubes. Aliquots of 25 μL experimental sample are extracted alongside the calibration lines using protein precipitation (agitation for at least 5 min at RT with 400 μL of MeCN containing 25 ng/mL tolbutamide as an internal standard). Protein precipitates are separated from the extracted test compound by centrifugation at 4000 rpm for 5 min, 4° C. […] Samples are analysed by UPLC-MS/MS on either an API6500 QTrap or Waters TQS mass spectrometer using previously optimised analytical MRM (multiple reaction monitoring) methods, specific to the test compound. The concentration of test compound in isolated samples is determined following analysis of the samples against the two replicates of the calibration line, injected before and after the sample set with an appropriate regression and weighting used. Only samples within 20% of the expected test concentration are included in the calibration line and any samples that fall outside of the limits of the calibration line will be deemed to be less than or above the limit of quantification (LLoQ/ALoQ). Total brain to plasma (B:P) ratios were calculated by dividing the concentration in the brain by the concentration in plasma for each timepoint. The mean brain to plasma ratio is calculated by averaging these brain to plasma ratios across certain timepoints. […]

[6] = target: T2, Ba/F3 cells expressing BCR-ABL (Homo sapiens, UniProt P00519); test: Ba/F3 CellTiter-Glo Assay; assay type: cell-based; settings: 48 h
T2 construct: BCR (fusion partner); host or cells: Ba/F3 (IL-3 dependent murine pro-B cells); the other entry of the earlier key: BCR (P11274, Breakpoint cluster region protein)
Method: The CellTiter-Glo luminescent cell viability assay is a homogeneous method of determining the number of viable cells in culture based on quantification of the ATP present. Briefly, IL-3 dependent Ba/F3 cells are modified to express BCR-ABL. Activity of the transformed kinase overrides IL3 dependency for cellular proliferation and survival. […] Test compounds were dispensed into 384 well plates using the Tecan D300e at a top final assay concentration of 10 μM with dosing normalised to 0.1% DMSO in 50 μL volume. […] Following a 60 min incubation at RT luminescence was read on the Pherastar FS reader.

[7] = 30% HPBC in water, timepoints averaged 0.5-4 h

T1 sequence (Q12809 whole entry): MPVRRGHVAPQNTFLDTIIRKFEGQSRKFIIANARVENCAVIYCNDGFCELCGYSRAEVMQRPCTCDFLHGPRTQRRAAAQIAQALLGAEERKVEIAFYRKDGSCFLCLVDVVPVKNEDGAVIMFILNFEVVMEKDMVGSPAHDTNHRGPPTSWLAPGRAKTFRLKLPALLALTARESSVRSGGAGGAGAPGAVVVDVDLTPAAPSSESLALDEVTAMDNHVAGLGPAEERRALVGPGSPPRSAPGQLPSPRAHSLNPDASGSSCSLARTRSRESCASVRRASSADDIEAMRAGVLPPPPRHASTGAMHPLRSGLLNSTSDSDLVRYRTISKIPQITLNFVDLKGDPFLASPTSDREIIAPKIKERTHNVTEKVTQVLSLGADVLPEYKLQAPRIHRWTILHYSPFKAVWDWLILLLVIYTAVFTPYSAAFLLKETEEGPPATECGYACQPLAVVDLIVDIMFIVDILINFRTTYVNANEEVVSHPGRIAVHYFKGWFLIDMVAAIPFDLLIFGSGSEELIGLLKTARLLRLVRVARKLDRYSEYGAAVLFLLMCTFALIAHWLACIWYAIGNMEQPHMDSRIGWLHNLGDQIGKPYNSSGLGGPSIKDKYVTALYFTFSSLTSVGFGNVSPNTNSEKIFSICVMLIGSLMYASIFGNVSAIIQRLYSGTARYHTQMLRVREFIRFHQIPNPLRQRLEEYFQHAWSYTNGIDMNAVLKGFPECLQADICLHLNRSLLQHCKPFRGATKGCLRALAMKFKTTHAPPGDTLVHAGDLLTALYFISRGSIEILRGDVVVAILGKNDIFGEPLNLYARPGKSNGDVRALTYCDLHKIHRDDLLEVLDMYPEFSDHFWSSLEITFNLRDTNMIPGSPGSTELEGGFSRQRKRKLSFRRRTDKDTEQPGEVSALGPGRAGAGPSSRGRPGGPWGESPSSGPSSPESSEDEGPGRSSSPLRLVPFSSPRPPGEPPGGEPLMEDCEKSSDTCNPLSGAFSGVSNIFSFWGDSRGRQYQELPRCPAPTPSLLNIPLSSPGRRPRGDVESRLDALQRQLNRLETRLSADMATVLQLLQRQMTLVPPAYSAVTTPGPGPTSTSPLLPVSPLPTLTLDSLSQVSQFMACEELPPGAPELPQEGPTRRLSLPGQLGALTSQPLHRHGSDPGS
T2 sequence (P00519 28-1130 limits assumed): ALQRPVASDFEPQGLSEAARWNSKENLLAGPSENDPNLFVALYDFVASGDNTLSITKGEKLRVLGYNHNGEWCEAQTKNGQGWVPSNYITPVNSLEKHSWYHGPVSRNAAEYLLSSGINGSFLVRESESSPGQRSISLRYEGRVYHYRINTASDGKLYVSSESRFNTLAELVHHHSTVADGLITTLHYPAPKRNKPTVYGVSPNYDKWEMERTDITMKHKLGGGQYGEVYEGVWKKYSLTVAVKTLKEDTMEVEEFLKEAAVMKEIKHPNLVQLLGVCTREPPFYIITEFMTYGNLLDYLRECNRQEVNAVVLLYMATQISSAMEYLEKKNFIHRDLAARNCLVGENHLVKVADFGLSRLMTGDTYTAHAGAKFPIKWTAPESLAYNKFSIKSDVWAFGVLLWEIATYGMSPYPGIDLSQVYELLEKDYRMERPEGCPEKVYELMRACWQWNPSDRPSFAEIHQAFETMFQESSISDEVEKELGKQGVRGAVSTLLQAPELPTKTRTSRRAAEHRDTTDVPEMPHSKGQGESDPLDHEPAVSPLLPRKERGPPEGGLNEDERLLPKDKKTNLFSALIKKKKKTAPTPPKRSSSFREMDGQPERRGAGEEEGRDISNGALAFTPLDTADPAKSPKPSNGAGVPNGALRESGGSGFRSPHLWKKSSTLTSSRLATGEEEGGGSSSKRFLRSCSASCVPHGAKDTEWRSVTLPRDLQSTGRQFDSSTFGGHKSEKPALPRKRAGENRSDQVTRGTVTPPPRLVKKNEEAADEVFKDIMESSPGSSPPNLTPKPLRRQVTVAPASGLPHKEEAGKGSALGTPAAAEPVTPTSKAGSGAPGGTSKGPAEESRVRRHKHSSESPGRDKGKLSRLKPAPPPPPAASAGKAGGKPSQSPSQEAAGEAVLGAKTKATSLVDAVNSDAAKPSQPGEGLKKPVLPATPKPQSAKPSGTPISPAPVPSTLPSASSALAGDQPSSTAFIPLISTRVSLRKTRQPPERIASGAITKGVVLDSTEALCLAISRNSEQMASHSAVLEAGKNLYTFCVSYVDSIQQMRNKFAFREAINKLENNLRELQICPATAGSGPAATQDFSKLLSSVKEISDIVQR

SMILES | IC50 (hERG channel) | solubility at 30 min [3] | further results
O=C(Nc1ccc(OC(F)(F)F)cc1)c1ccc(=O)n(-c2cncnc2)c1 [Example 50, 6-Oxo-1-(pyrimidin-5-yl)-N-[4-(trifluoromethoxy)phenyl]-1.6-dihydropyridine-3-carboxamide] | > 10 µM |  | number of 87 targets inhibited >50% [1]: 2; maximum inhibition ([1]; 87 targets): 65%; mutagenicity in the Bacterial Reverse Mutation (Ames) Test [2]: not mutagenic
O=C(Nc1ccc(OC(F)(F)Cl)cc1)c1ccc(=O)n(-c2cncnc2)c1 [Example 51, N-[4-(Chlorodifluoromethoxy)phenyl]-6-oxo-1-(pyrimidin-5-yl)-1,6-dihydropyridine-3-carboxamide] | > 10 µM | 190 µM (≈ 74.6 µg/mL) | Kp [4]: 0.67
Cn1cc(-n2cc(C(=O)Nc3ccc(OC(F)(F)Cl)cc3)ccc2=O)cn1 [Example 52, N-[4-[Chloro(difluoro)methoxy]phenyl]-1-(1-methylpyrazol-4-yl)-6-oxo-pyridine-3-carboxamide] | > 10 µM | 160 µM (≈ 63.2 µg/mL) | mutagenicity in the Bacterial Reverse Mutation (Ames) Test [2]: not mutagenic
O=C(Nc1ccc(OC(F)(F)Cl)cc1)c1ccc(=O)n(-c2cccnc2)c1 [Example 53, N-[4-[Chloro(difluoro)methoxy]phenyl]-6-oxo-1-(3-pyridyl)pyridine-3-carboxamide] | > 10 µM | 170 µM (≈ 66.6 µg/mL) | Kp ([5]; 5% NMP in 30% HPBC in water, timepoints averaged 0.5-1 h): 0.82
COc1cncc(-n2cc(C(=O)Nc3ccc(OC(F)(F)Cl)cc3)ccc2=O)c1 [Example 61, N-[4-[Chloro(difluoro)methoxy]phenyl]-1-(5-methoxy-3-pyridyl)-6-oxo-pyridine-3-carboxamide] | > 10 µM | 160 µM (≈ 67.5 µg/mL) | Kp [5, 7]: 0.45
O=C(Nc1ccc(OC(F)(F)Cl)cc1)c1ccc(=O)n(-c2cncc(Cl)c2)c1 [Example 63, N-[4-[Chloro(difluoro)methoxy]phenyl]-1-(5-chloro-3-pyridyl)-6-oxo-pyridine-3-carboxamide] | > 10 µM | 120 µM (≈ 51.1 µg/mL) | Kp [5, 7]: 0.64
O=C(Nc1ccc(OC(F)(F)Cl)cc1)c1ccc(=O)n(-c2ccc[n+]([O-])c2)c1 [Example 78, 5-{[4-(Chlorodifluoromethoxy)phenyl]carbamoyl}-2-oxo-2H-[1.3′-bipyridin]-1′-ium-1′-olate] |  | 150 µM (≈ 61.2 µg/mL) | IC50 [6]: 151 to 1000 nM
Cn1cc(-n2cc(C(=O)Nc3ccc(OC(F)(F)Cl)cc3)cc(C#N)c2=O)cn1 [Example 79, N-[4-(Chlorodifluoromethoxy)phenyl]-5-cyano-1-(1-methyl-1H-pyrazol-4-yl)-6-oxo-1.6-dihydropyridine-3-carboxamide] |  |  | IC50 [6]: 151 to 1000 nM
